Where “and” joins values, the source holds several entries; their conditions need not be identical. Equal entries are not always repeated.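 How tested: cells in 96-well plates exposed to compound for 48 hours at five concentrations. GI50: concentration for 50% inhibition of growth. The concentration for full growth arrest is given as TGI.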
Each compound was assayed on RPMI-8226 leukemia (assay: growth of human tumour cells (NCI), 48 h).

Structure (SMILES)	TGI	GI50
COc1cc(C#CC(=O)OC/C=C/c2ccc3c(c2)OCO3)cc(OC)c1OC	51.8 µM	
O/N=C/C1C(OCc2ccccc2)C(OCc2ccccc2)C(OCc2ccccc2)CN1Cc1ccccc1 (stereo not given)	> 100 µM	
O=C1NC(=O)C(c2cnc3ccccn23)=C1c1cn2c3c(cc(F)cc13)CN(C(=O)N1CCCCC1)CC2	46.6 µM	15.9 µM
Clc1nc2ccccc2nc1CI	21.9 µM	4.33 µM
Cn1nc(N)c2cc([C@@H]3Nc4ccc5[nH]ncc5c4[C@H]4C5CCC(C5)[C@@H]34)ccc21 (stereo not given in full)	3.69 µM	0.36 µM
Cn1cc(CO)c2c1C(=O)C=C(N1CC1)C2=O	0.192 µM	< 0.01 µM
O=C(O)C1C2C=CC(O2)C1C(=O)NCc1ccccn1 (stereo not given)	> 100 µM	
CCN(CC)CCCC(CNc1ccnc2cc(Cl)ccc12)c1ccc(Cl)cc1 (stereo not given)	4.79 µM and 2.69 µM	1.36 µM and 0.59 µM
[Cl][Hg][c]1cc(Br)cc(Br)c1	4.86 µM	1.81 µM
C=C1C(=O)O[C@@H]2C[C@@H]1CC/C(C)=C/CC/C(C)=C/CC[C@@]2(C)O	5.09 µM	2.09 µM
CCN1CCN(C(c2ccc(C(F)(F)F)cc2)c2ccc3cccnc3c2O)CC1 (stereo not given)	16.7 µM	0.798 µM
COc1ccc(C(C)=O)cc1N1C(=O)C2C(C1=O)C1(c3ccccc3)C(=O)C2(c2ccccc2)C(c2ccc(C)cc2)=C1c1ccc(C)cc1 (stereo not given)	> 100 µM	> 100 µM
NC(=Nc1c([N+](=O)[O-])cnc2ccccc12)N1CCOCC1	> 100 µM	
CCN(CC)c1ccc2c(c1)OC(N)=C(C#N)C2c1cc(OC)c2c(c1)OCO2 (stereo not given)	2.51 µM	0.0474 µM
N#CC(=C1C=CC(=NO)C=C1)c1ccccc1	1.83 µM	0.348 µM
CC(C)=CCNc1ncnc2c1ncn2C1OC(CO)C(O)C1O (stereo not given)	25.2 µM	2.91 µM
COc1ccc(CN2C(=O)/C(=C\C(=O)c3ccc(OCCN4CCCCC4)cc3)c3ccccc32)cc1	5.62 µM	2.31 µM
O=C(CNc1ccc(Cl)cc1)Nc1ccc(-c2nc3ccccc3s2)cc1	16 µM	2.82 µM
CCN(CC)CCC(CNc1ccnc2cc(Cl)ccc12)c1ccc(OC)cc1 (stereo not given)	35.5 µM and 8.15 µM	7.14 µM and 2.12 µM
COc1ccc(/C=C(/C(=O)N2CCN(c3ccccc3)CC2)c2cc(OC)c(OC)c(OC)c2)cc1O	21.4 µM	0.374 µM
Cc1ccc(C)c(C2=C(c3cn(C)c4ccccc34)C(=O)NC2=O)c1	> 25 µM	> 22 µM
CN1CCN(CCOc2ccc(-c3cnc4c(-c5ccccc5F)cnn4c3)cc2)CC1	5.44 µM	1.57 µM
CN(C)N=Nc1ccc(NC=O)cc1	> 100 µM	

The compounds below were run on SR leukemia (assay: growth of human tumour cells (NCI), 48 h).

Structure (SMILES)	GI50	TGI
OC[C@H]1C[C@](O)(c2ccc(Cl)cc2)[C@@H](c2ccc(Cl)cc2)O1	0.202 µM	16.8 µM
COc1cc(C#CC(=O)OC/C=C/c2ccc3c(c2)OCO3)cc(OC)c1OC		40.5 µM
O/N=C/C1C(OCc2ccccc2)C(OCc2ccccc2)C(OCc2ccccc2)CN1Cc1ccccc1 (stereo not given)	8.3 µM and 2 µM	> 100 µM
O=C1NC(=O)C(c2cnc3ccccn23)=C1c1cn2c3c(cc(F)cc13)CN(C(=O)N1CCCCC1)CC2	1.84 µM	29.1 µM
Clc1nc2ccccc2nc1CI	0.638 µM	
Cn1nc(N)c2cc([C@@H]3Nc4ccc5[nH]ncc5c4[C@H]4C5CCC(C5)[C@@H]34)ccc21 (stereo not given in full)	0.426 µM	> 100 µM
Cn1cc(CO)c2c1C(=O)C=C(N1CC1)C2=O	< 0.01 µM	0.0145 µM
O=C(O)C1C2C=CC(O2)C1C(=O)NCc1ccccn1 (stereo not given)		> 100 µM
CCN(CC)CCCC(CNc1ccnc2cc(Cl)ccc12)c1ccc(Cl)cc1 (stereo not given)	0.337 µM and 0.307 µM	1.38 µM and 1.09 µM
[Cl][Hg][c]1cc(Br)cc(Br)c1	0.866 µM	3.52 µM
C=C1C(=O)O[C@@H]2C[C@@H]1CC/C(C)=C/CC/C(C)=C/CC[C@@]2(C)O	1.63 µM	3.58 µM
CCN1CCN(C(c2ccc(C(F)(F)F)cc2)c2ccc3cccnc3c2O)CC1 (stereo not given)	0.835 µM	11 µM
COc1ccc(C(C)=O)cc1N1C(=O)C2C(C1=O)C1(c3ccccc3)C(=O)C2(c2ccccc2)C(c2ccc(C)cc2)=C1c1ccc(C)cc1 (stereo not given)	> 100 µM	> 100 µM
NC(=Nc1c([N+](=O)[O-])cnc2ccccc12)N1CCOCC1		> 100 µM
CCN(CC)c1ccc2c(c1)OC(N)=C(C#N)C2c1cc(OC)c2c(c1)OCO2 (stereo not given)	< 0.017 µM	1.98 µM
N#CC(=C1C=CC(=NO)C=C1)c1ccccc1	0.349 µM	3.73 µM
CC(C)=CCNc1ncnc2c1ncn2C1OC(CO)C(O)C1O (stereo not given)	0.799 µM	> 334 µM
COc1ccc(CN2C(=O)/C(=C\C(=O)c3ccc(OCCN4CCCCC4)cc3)c3ccccc32)cc1	2.04 µM	7.4 µM
O=C(CNc1ccc(Cl)cc1)Nc1ccc(-c2nc3ccccc3s2)cc1	1.43 µM	> 24 µM
CCN(CC)CCC(CNc1ccnc2cc(Cl)ccc12)c1ccc(OC)cc1 (stereo not given)	2.31 µM and 2.04 µM	8.35 µM and 7.34 µM
COc1ccc(/C=C(/C(=O)N2CCN(c3ccccc3)CC2)c2cc(OC)c(OC)c(OC)c2)cc1O	0.381 µM	58.4 µM
Cc1ccc(C)c(C2=C(c3cn(C)c4ccccc34)C(=O)NC2=O)c1	5.05 µM	> 21 µM
CN1CCN(CCOc2ccc(-c3cnc4c(-c5ccccc5F)cnn4c3)cc2)CC1	2.59 µM	> 100 µM
CN(C)N=Nc1ccc(NC=O)cc1		> 100 µM
C=C1C(=O)OC2CCN3CC=C(COC(=O)C(C)(O)C4(CO4)C1C)C23 (stereo not given)		> 100 µM
